Source: patent US12390447B2, “Sirtuin 6 protein deacylase (SIRT6) activators” (Wisconsin Alumni Research Foundation, priority 2019, dated 2025)

Experiments:
Assay type in all cases: biochemical
SIRT6 K81A = SIRT6 K81A (Homo sapiens, UniProt Q8N6T7, K81A); test: Steady-state deacetylation rate of SIRT6 K81A with or without CL5D; conditions: SIRT6 K81A 1 μM, H3K9ac 40 μM, CL5D 50 μM, 25 minutes
Description: (§1) All sirtuin deacylation assays were carried out at 37° C. in 20 mM potassium phosphate pH 7.5 with 0.5 mM NAD^+, 10% DMSO, and 20 μM H3K9ac or H3K9myr peptides, unless otherwise noted in legend, and quenched by the addition of 2% TFA final. Steady-state reactions were constrained to less than 20% substrate turnover to prevent product inhibition. A variety of times were required to monitor SIRT6 deacetylation (2-60 minutes) under this restraint given the ability to strongly activate catalysis. In these cases, specific activities were determined and either reported as is or as fold-activation of specific activity. Deacylation reactions were analyzed by reversed phase high-performance liquid chromatography on a Kinetex C18 column (100 Å, 100×4.6 mm, 2.6 μm, Phenomenex) by monitoring the formation of the deacylated product at 214 nm. Deacetylation reactions were analyzed using a gradient of 33-100% B (30% acetonitrile with 0.05% TFA) in 8 min at 1.6 mL min^−1. Demyristoylation reactions were analyzed using a gradient of 3 to 100% B (acetonitrile with 0.05% TFA) in 10 min at 1.6 mL min^−1. The product and substrate peaks were quantified and ratio of these allowed for quantification of product formation. Three independent experiments were performed for each condition with averages being plotted and error bars representing the standard deviation of these replicates. […]

SIRT6 [1] = biological target: T1, SIRT6 (Homo sapiens, UniProt Q8N6T7); test: Histone deacetylation assay with acid extracted histones, H3K9ac immunoblot; conditions: 50 μM compound; histones 75 μg/mL from SAHA-treated HEK293T cells; SIRT6 1 μM
T1 sequence (Q8N6T7 whole entry): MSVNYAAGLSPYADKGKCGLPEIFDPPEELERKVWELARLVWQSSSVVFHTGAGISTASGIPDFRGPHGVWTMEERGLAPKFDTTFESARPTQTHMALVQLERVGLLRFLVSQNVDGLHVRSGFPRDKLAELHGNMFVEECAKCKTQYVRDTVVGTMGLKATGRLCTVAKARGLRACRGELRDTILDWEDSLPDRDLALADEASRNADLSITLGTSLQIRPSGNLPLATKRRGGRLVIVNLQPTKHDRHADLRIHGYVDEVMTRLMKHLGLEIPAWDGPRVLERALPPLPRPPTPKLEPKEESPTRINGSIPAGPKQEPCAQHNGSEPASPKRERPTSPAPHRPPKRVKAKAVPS
Description: HEK293T cells were cultured in Dulbecco's Modified Eagle Medium supplemented with 10% fetal bovine serum. Cells were treated with 10 μM SAHA for 24 hours prior to harvest. Cells were trypsinized and pelleted prior to washing twice with ice-cold PBS. Cells were then resuspended in 800 μL ice-cold 10 mM HEPES pH 7.4, 10 mM KCl, 0.05% NP-40, and histone deacetylase and protease inhibitors (1 mM sodium butyrate, 4 μM trichostatin A, 100 μM phenylmethylsulfonyl fluoride, 10 μg/mL leupeptin, and 10 μg/mL aprotinin) for 20 minutes. After a 1,000×g 10 minute spin at 4° C. the pelleted nuclei were resuspended in 0.2 M HCl and incubated on ice for 20 minutes. Following 10 minute spin at 21,000×g at 4° C. the acid extracted supernatant was neutralized with 1 M Tris-HCl pH 8 prior to BCA protein concentration measurement. Histone deacetylation assays were ran with 75 μg/mL extracted histones, 1 μM SIRT6, 50 μM CL5, CL5D or 5% DMSO control, 0.5 mM NAD^+, in 20 mM potassium phosphate pH 7.5. Reactions ran at 37° C. prior to quench with SDS loading dye and 5 minute boil. 540 ng of nuclei acid extract following sirtuin reaction were loaded for 15% SDS-PAGE followed by transfer to nitrocellulose. Membrane was blocked with 1% milk before blotted with anti-H3K9ac (Active Motiff 39917) 1:3000 and imaged. […] Bands were quantified using Image Studio Lite (LiCor). […]

SIRT6 R65A = SIRT6 R65A (Homo sapiens, UniProt Q8N6T7, R65A); test: Steady-state deacetylation rate of SIRT6 R65A with or without CL5D; conditions: CL5D 50 μM
SIRT6 R65A, sequence (Q8N6T7 whole entry R65A): as the sequence (Q8N6T7 whole entry) above, with R65A counted along it
Description: as §1

SIRT6 [2] = biological target: T1, SIRT6; test: Burst kinetic analysis of SIRT6 deacetylation; conditions: SIRT6 10 μM, 400 μM H3K9ac peptide, 500 μM NAD+
Description: SIRT6 (10 μM) was mixed with either H3K9ac peptide (400 μM) or NAD^+ (500 μM) in 20 mM potassium phosphate pH 7.5 and preheated to 37° C. for 3 minutes. Reactions were initiated either through the addition of NAD^+ (500 μM final) or H3K9ac peptide (400 μM final) and quenched after 10-1800 seconds by the addition of 3% TFA final. For each experiment, a control reaction in which H3K9ac peptide was excluded was collected at each timepoint and subtracted from corresponding experimental reactions to control for NAD^+ degradation. Nicotinamide and deacetylated peptide product were quantified by reverse-phase HPLC as described in the rapid quench flow kinetics methods section.
To further dissect the catalytic step(s) in kcat/Km,H3K9ac that are enhanced in the presence of activator, reaction conditions were set up to identify the existence of product ‘bursts’ during the first catalytic turnover. High concentrations of SIRT6 (10 μM) in the presence of 400 μM H3K9ac peptide were rapidly mixed with 500 μM NAD^+, and after an acid quench at different times, the products nicotinamide and deacetylated peptide were resolved and quantified by HPLC. […] The order of substrate mixing had no effect on the product curves.

SIRT6 K81A, sequence (Q8N6T7 whole entry K81A): as the sequence (Q8N6T7 whole entry) above, with K81A counted along it

RateCL5D (SIRT6 K81A): 0.125 ± 0.003 µM/min | SIRT6 deacetylation at H3K9 of whole histone substrate (in words) (SIRT6 [1]): stimulated | activation of SIRT6 R65A (in words) (SIRT6 R65A): cannot be activated | RateCL5D (SIRT6 R65A; SIRT6 R65A 1 μM, H3K9ac 40 μM, 25 minutes): 0.014 ± 0.004 µM/min | rate enhancement in the presence of CL5D (SIRT6 [2]): 1.8 fold
Compound: O=C(O)c1ccc2c(c1)C(=O)N(c1ccc(N(C(=O)c3c(Cl)cc(Cl)cc3Cl)C(=O)c3c(Cl)cc(Cl)cc3Cl)c(Cl)c1)C2=O [CL-5D, 2-(3-chloro-4-(2,4,6-trichloro-N-(2,4,6-trichlorobenzoyl)benzamido)phenyl)-1,3-dioxoisoindoline-5-carboxylic acid]
